Blank lines part the entries; values can stand above or below the molecule they belong to. Activity calls are given as the source filed them. The rule behind the calls is not given here.
Experiments:
[1] = target: T1, cAMP-dependent protein kinase catalytic subunit alpha (Homo sapiens, UniProt P17612); assay: Binding affinity to human recombinant PKAC-alpha assessed as inactivation constant measured upto 60 mins by Western blot analysis
[2] = GSH reactivity in potassium phosphate buffer at pH 7.4 assessed as half life at 0.15 mM at 37 degreeC measured for 30 to 60 mins by HPLC-MS analysis; type: physicochemical; conditions: potassium phosphate buffer with GSH, time 30-60 min
[3] = target: T1, cAMP-dependent protein kinase catalytic subunit alpha; assay: Displacement of ARC-1063 fluorescent probe from recombinant human PKAC-alpha assessed as dissociation half life preincubated for 1 hr followed by photoluminescent probe addition by time-gated luminescence intensity based assay
[4] = target: T1, cAMP-dependent protein kinase catalytic subunit alpha; assay: Binding affinity to human recombinant PKAC-alpha assessed as reduction in TGLI signal at 10 uM pretreated with compound followed by ARC-1063 fluorescent probe addition by time-gated luminescence intensity based displacement assay; conditions: time 60-480 min, TDE = time-dependent effect
[5] = Drug degradation in phosphate buffer at pH 7.4 assessed as half life at 0.15 mM at 30 degreeC measured for 30 to 60 mins by HPLC-MS analysis; type: ADME; conditions: time 30-60 min
[6] = target: T1, cAMP-dependent protein kinase catalytic subunit alpha; assay: Binding affinity to human recombinant PKAC-alpha at Cys199 residue assessed as compound-protein adduct formation by measuring mass difference at 3.5 uM incubated for 2 hrs by LC-MS/MS analysis
[7] = target: T1, cAMP-dependent protein kinase catalytic subunit alpha; assay: Binding affinity to human recombinant PKACalpha assessed as compound-protein adduct formation by measuring half life at 30 degreeC
[8] = Drug degradation in phosphate buffer at pH 7.4 assessed as half life at 0.15 mM at 37 degreeC measured for 30 to 60 mins by HPLC-MS analysis; type: ADME; conditions: time 30-60 min
[9] = target: T1, cAMP-dependent protein kinase catalytic subunit alpha; assay: Binding affinity to human recombinant PKAC-alpha assessed as inactivation constant incubated for 1 hr by time-gated luminescence intensity based displacement assay
[10] = target: T1, cAMP-dependent protein kinase catalytic subunit alpha; assay: Covalent inhibition of human recombinant PKAC-alpha assessed as inhibition constant
[11] = GSH reactivity in potassium phosphate buffer at pH 7.4 assessed as half life at 0.15 mM at 30 degreeC measured for 30 to 60 mins by HPLC-MS analysis; type: physicochemical; conditions: potassium phosphate buffer with GSH, time 30-60 min
[12] = target: cAMP-dependent protein kinase catalytic subunit beta (Homo sapiens) (UniProt P22694); assay: Binding affinity to recombinant full length human spiked PKAC-beta in human PC-3 cell lysates assessed as irreversible compound-protein adduct formation by measuring remaining activity at 150 nM measured after 1 hr by […] immunostaining based Western blot analysis; type: subcellular
[13] = target: cAMP-dependent protein kinase catalytic subunit beta (Homo sapiens) (UniProt P22694); assay: Binding affinity to recombinant full length human spiked PKAC-beta in human PC-3 cell lysates assessed as irreversible compound-protein adduct formation at 150 nM incubated for 1 hr by 5-TAMRA dye based Western blot analysis; type: subcellular
[14] = target: T1, cAMP-dependent protein kinase catalytic subunit alpha; assay: Binding affinity to recombinant human active PKAC-alpha assessed as compound-protein adduct formation by measuring formation of three bands at 1.5 uM incubated for 1 hr by 5-TAMRA dye based immunostaining analysis
[15] = target: T2, Aurora kinase A (Homo sapiens) (UniProt O14965); assay: (§1) Binding affinity to N-terminal 6His-tagged active recombinant full length human spiked Aurora A in human PC-3 cell lysates assessed as irreversible compound-protein adduct formation at 150 nM incubated for 1 hr by 5-TAMRA dye based Western blot analysis; type: subcellular
T2 sequence (whole entry): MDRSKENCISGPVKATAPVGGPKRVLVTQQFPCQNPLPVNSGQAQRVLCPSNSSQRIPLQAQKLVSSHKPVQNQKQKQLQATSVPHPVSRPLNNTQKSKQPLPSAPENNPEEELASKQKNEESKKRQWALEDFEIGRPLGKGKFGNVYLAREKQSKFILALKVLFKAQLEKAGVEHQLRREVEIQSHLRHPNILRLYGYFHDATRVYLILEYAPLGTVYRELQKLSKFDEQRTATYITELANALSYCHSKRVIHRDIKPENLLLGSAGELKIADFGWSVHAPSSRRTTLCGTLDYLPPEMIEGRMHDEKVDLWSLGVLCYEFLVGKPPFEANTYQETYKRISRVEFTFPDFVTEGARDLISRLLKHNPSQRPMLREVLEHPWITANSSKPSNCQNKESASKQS

[16] = target: T1, cAMP-dependent protein kinase catalytic subunit alpha; assay: Binding affinity to recombinant human spiked PKAC-alpha in human U2OS cell lysates assessed as covalent compound-protein adduct formation at 1.5 uM incubated for 1 hr by 5-TAMRA dye based Western blot analysis; type: subcellular
[17] = target: T2, Aurora kinase A (Homo sapiens); assay: as §1, with “formation by measuring remaining activity” for “formation”, “Aurora A antibody immunostaining” for “5-TAMRA dye”; type: subcellular
[18] = target: T1, cAMP-dependent protein kinase catalytic subunit alpha; assay: Binding affinity to recombinant human spiked PKAC-alpha in human U2OS cell lysates assessed as covalent compound-protein adduct formation at 1.5 uM incubated for 1 hr in presence of GSH by 5-TAMRA dye based Western blot analysis; type: subcellular
[19] = target: T1, cAMP-dependent protein kinase catalytic subunit alpha; assay: Binding affinity to recombinant human spiked PKAC-alpha in human HeLa cells assessed as covalent compound-protein adduct formation by measuring multiple fluorescent band formation at 150 nM incubated for 1 hr by 5-TAMRA dye based Western blot analysis; type: cell-based
[20] = target: T1, cAMP-dependent protein kinase catalytic subunit alpha; assay: Binding affinity to recombinant human spiked PKAC-alpha in human HeLa cells assessed as covalent compound-protein adduct formation by measuring multiple fluorescent band formation at 1.5 uM incubated for 1 hr by 5-TAMRA dye based Western blot analysis; type: cell-based
[21] = target: T1, cAMP-dependent protein kinase catalytic subunit alpha; assay: Binding affinity to recombinant human spiked PKAC-alpha in human U2OS cell lysates assessed as covalent compound-protein adduct formation at 1.5 uM incubated for 1 hr in presence of PK inhibitor, staurosporin by 5-TAMRA dye based Western blot analysis; type: subcellular
[22] = target: T1, cAMP-dependent protein kinase catalytic subunit alpha; assay: Binding affinity to recombinant human spiked PKAC-alpha in human PC-3 cell lysates assessed as covalent compound-protein adduct formation at 15 nM incubated for 1 hr by 5-TAMRA dye based Western blot analysis; type: subcellular
[23] = system: RAC-gamma serine/threonine-protein kinase (Homo sapiens), Q9Y243 [S472D]; assay: (§2) Binding affinity to N-terminal 6His-tagged active recombinant human spiked Akt3 S472D mutant (117 to end residues) in human PC-3 cell lysates assessed as irreversible compound-protein adduct formation at 150 nM incubated for 1 hr by 5-TAMRA dye based Western blot analysis; type: subcellular
RAC-gamma serine/threonine-protein kinase (Homo sapiens), Q9Y243 [S472D], sequence (Q9Y243 whole entry S472D): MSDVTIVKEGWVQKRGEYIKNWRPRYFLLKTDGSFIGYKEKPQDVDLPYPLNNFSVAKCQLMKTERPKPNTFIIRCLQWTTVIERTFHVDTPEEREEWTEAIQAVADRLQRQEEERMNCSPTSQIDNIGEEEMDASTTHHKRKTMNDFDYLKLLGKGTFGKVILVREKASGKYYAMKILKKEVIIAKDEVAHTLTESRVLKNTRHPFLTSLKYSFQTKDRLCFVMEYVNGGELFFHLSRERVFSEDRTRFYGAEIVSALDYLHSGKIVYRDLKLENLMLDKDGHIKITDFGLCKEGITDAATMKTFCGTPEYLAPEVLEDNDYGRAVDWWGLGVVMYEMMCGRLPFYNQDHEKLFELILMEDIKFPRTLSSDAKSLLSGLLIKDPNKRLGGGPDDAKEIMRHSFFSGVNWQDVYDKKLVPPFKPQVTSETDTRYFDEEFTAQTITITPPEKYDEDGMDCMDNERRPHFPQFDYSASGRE

[24] = target: Ribosomal protein S6 kinase alpha-5 (Homo sapiens) (UniProt O75582); assay: Binding affinity to N-terminal 6His-tagged recombinant human spiked MSK1 (2 to end residues) in human PC-3 cell lysates assessed as irreversible compound-protein adduct formation at 150 nM incubated for 1 hr by 5-TAMRA dye based Western blot analysis; type: subcellular
Ribosomal protein S6 kinase alpha-5 (Homo sapiens), sequence (O75582 whole entry, looked up): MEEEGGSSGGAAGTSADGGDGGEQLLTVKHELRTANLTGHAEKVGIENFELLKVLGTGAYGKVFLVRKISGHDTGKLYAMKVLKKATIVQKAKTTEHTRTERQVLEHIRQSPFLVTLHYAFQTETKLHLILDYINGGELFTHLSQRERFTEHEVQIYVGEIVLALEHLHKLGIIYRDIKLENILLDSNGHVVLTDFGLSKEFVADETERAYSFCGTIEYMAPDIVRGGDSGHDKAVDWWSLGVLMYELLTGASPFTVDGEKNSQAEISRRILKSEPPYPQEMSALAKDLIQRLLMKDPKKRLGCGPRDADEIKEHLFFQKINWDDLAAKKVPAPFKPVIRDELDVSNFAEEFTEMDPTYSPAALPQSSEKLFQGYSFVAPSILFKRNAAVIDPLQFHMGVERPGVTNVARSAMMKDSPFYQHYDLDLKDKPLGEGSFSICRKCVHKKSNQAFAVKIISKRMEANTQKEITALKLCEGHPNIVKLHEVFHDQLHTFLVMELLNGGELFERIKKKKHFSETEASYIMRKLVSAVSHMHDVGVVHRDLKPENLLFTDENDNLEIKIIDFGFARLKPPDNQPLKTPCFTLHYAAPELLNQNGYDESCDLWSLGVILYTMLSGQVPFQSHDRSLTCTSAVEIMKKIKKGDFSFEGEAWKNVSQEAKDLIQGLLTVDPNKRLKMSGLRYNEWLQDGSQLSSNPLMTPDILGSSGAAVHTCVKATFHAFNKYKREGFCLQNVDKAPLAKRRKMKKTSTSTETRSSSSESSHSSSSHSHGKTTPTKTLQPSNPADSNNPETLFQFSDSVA

[25] = system: RAC-gamma serine/threonine-protein kinase (Homo sapiens), Q9Y243 [S472D]; assay: as §2, with “formation by measuring remaining activity” for “formation”, “Akt3 antibody immunostaining” for “5-TAMRA dye”; type: subcellular
[26] = target: T1, cAMP-dependent protein kinase catalytic subunit alpha; assay: Inhibition of ARC-1063 fluorescent probe binding to recombinant human PKAC-alpha incubated for 1 hr by time-gated luminescence intensity based displacement assay
[27] = target: T1, cAMP-dependent protein kinase catalytic subunit alpha; assay: Displacement of ARC-1063 fluorescent probe from recombinant human PKAC-alpha assessed as dissociation equilibrium constant preincubated for 1 hr followed by photoluminescent probe addition by time-gated luminescence intensity based assay
[28] = target: T1, cAMP-dependent protein kinase catalytic subunit alpha; assay: Displacement of ARC-1063 fluorescent probe from recombinant human PKAC-alpha assessed as binding constant (kon) preincubated for 1 hr followed by photoluminescent probe addition by time-gated luminescence intensity based assay
[29] = target: T2, Aurora kinase A (Homo sapiens); assay: Inhibition of N-terminal 6His-tagged active recombinant full length human Aurora A-mediated phosphorylation assessed as residual activity at 100 nM relative to control
[30] = target: RAC-beta serine/threonine-protein kinase (Homo sapiens) (UniProt P31751); assay: Inhibition of human PKB-beta assessed as residual activity at 0.1 uM in presence of ATP by radiometric filter-binding assay relative to control
RAC-beta serine/threonine-protein kinase (Homo sapiens), sequence (P31751 whole entry): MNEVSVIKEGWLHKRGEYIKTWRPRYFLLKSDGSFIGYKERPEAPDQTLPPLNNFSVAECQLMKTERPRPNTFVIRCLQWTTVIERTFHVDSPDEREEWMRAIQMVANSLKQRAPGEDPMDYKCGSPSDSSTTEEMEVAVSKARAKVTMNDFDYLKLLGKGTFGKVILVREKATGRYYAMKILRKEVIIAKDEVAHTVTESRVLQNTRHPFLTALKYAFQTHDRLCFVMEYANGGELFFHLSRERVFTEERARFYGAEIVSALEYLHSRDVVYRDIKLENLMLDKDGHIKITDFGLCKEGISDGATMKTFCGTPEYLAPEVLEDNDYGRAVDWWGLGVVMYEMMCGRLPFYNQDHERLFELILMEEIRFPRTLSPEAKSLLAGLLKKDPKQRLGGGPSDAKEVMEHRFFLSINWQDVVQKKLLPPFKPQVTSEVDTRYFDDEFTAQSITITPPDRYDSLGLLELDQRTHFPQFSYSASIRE

[31] = organism: Homo sapiens; assay: Selectivity index, ratio of Kd for N-terminal 6His-tagged active recombinant human spiked Akt3 S472D mutant (117 to end residues) to Kd for human recombinant PKACalpha
[32] = target: Rho-associated protein kinase 2 (Homo sapiens) (UniProt O75116); assay: Inhibition of recombinant human GST-tagged ROCK-2 catalytic domain (1 to 552 residues) assessed as residual activity at 0.1 uM in presence of ATP by radiometric filter-binding assay relative to control
Rho-associated protein kinase 2 (Homo sapiens), sequence (O75116 whole entry, looked up, the tested form may be a part): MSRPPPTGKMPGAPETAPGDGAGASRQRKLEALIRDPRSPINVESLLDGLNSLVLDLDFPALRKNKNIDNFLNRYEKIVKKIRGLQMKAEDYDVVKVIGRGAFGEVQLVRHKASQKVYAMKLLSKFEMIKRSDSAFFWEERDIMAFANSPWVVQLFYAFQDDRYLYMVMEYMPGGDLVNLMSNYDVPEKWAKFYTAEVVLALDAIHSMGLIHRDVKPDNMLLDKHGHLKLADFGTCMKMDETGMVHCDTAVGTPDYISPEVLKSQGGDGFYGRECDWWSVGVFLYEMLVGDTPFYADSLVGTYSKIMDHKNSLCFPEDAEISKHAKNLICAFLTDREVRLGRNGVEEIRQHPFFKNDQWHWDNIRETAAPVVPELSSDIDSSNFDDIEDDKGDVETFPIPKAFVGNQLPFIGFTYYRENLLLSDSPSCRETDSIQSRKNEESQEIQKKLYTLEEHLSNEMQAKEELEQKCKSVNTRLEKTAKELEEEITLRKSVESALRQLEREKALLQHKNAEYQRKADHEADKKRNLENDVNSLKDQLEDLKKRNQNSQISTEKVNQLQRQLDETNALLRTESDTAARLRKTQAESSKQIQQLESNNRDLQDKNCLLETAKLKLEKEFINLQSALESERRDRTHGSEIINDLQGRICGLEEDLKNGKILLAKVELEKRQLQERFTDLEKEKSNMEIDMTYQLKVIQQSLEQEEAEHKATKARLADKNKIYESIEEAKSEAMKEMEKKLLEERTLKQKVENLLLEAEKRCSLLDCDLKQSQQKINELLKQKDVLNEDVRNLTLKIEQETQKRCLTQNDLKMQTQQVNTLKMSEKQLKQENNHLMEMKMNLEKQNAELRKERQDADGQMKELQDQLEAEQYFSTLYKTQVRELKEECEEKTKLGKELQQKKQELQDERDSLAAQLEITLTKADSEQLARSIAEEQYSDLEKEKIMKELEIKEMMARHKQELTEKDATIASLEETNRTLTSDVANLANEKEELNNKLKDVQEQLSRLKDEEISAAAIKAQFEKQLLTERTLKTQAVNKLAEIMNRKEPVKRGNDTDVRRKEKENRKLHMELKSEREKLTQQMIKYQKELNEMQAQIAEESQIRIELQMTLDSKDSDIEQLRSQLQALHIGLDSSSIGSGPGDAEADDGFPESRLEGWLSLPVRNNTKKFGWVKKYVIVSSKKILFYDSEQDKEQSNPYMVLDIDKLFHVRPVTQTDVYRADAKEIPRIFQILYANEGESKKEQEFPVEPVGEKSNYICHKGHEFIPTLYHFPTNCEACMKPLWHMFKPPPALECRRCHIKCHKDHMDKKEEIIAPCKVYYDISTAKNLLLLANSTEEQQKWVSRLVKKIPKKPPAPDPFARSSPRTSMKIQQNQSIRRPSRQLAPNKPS

[33] = target: T1, cAMP-dependent protein kinase catalytic subunit alpha; assay: Inhibition of recombinant human PKAC-alpha assessed as residual activity at 0.1 uM in presence of ATP by radiometric filter-binding assay relative to control
[34] = target: Aurora kinase B (Homo sapiens) (UniProt Q96GD4); assay: Inhibition of N-terminal 6His-tagged active recombinant full length human Aurora B-mediated phosphorylation assessed as residual activity at 100 nM relative to control
Aurora kinase B (Homo sapiens), sequence (Q96GD4 whole entry): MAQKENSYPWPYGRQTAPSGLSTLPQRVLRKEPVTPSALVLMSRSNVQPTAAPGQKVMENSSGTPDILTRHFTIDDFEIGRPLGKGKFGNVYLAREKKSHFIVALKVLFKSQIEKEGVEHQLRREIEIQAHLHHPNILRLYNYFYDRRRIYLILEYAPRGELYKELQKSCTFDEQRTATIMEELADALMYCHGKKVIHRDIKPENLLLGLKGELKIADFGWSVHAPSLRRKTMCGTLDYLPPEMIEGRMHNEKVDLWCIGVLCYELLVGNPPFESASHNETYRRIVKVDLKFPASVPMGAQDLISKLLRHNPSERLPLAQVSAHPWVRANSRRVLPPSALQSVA

[35] = target: RAC-alpha serine/threonine-protein kinase (Homo sapiens) (UniProt P31749); assay: Inhibition of human PKBalpha assessed as residual activity at 0.1 uM in presence of ATP by radiometric filter-binding assay relative to control
RAC-alpha serine/threonine-protein kinase (Homo sapiens), sequence (P31749 whole entry): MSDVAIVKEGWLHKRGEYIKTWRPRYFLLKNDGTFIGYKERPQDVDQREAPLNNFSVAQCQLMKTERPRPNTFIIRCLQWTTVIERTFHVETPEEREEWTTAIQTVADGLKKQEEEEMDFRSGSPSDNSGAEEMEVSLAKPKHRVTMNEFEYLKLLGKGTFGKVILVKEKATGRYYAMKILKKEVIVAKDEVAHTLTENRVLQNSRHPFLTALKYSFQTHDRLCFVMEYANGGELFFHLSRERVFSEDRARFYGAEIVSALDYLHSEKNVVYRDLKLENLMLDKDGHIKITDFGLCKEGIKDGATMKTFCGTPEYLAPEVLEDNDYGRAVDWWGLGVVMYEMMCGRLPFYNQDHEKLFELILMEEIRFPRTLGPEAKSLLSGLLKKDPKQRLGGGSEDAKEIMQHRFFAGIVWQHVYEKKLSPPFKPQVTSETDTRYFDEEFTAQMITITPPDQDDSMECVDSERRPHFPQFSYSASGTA

[36] = target: Ribosomal protein S6 kinase alpha-5 (Homo sapiens) (UniProt O75582); assay: Inhibition of N-terminal 6His-tagged recombinant human spiked MSK1 (2 to end residues) assessed as residual activity relative to control

Kinact [1]: 5.8 10^-4/s | half-life at 150 µM [2]: 22.2 min | T1/2 [3]: 19 min | Activity [4]: Tde | half-life at 150 µM [5]: 78.6 min | Activity [6]: Active | T1/2 [7]: 19.2 min | half-life at 150 µM [8]: 57 min | Kinact [9]: 6.1 10^-4/s | Ki [10]: 0.023 nM | half-life at 150 µM [11]: 44.4 min
SMILES: CC[C@H](C)[C@H](NC(=O)CCC(=O)N[C@@H](CCCCNC(=O)[C@@H](CCCNC(=N)N)NC(=O)CCCCCCCC(=O)N1CCN(c2ncnc3[nH]ccc23)CC1)C(=O)N[C@H](CCCNC(=N)N)C(=O)N[C@H](CCCNC(=N)N)C(N)=O)C(=O)NCC(=O)CF

Activity [12]: Active | Activity [13]: Active | Activity [14]: Active | Activity [15]: Active | Activity [16]: Active | Activity [17]: Active | Activity [18]: Active | Activity [19]: Active | Activity [20]: Active | Activity [21]: Active | Activity [22]: Active | Activity [23]: Active | Activity [24]: Active | Activity [25]: Active
SMILES: CC[C@H](C)[C@H](NC(=O)CCC(=O)N[C@@H](CCCCNC(=O)[C@@H](CCCNC(=N)N)NC(=O)CCCCCCCC(=O)N1CCN(c2ncnc3[nH]ccc23)CC1)C(=O)N[C@H](CCCNC(=N)N)C(=O)N[C@H](CCCNC(=N)N)C(=O)N[C@H](CCCCNC(=O)c1ccc(-c2c3ccc(=[N+](C)C)cc-3oc3cc(N(C)C)ccc23)c(C(=O)O)c1)C(N)=O)C(=O)NCC(=O)CF

IC50 [26]: 5.6 nM | T1/2 [3]: 11.1 min | Kd [27]: 0.0049 nM | K [28]: 2.2 10^8/M/s
SMILES: CC[C@H](C)[C@H](NC(=O)CCC(=O)N[C@@H](CCCCNC(=O)[C@@H](CCCNC(=N)N)NC(=O)CCCCCCCC(=O)N1CCN(c2ncnc3[nH]ccc23)CC1)C(=O)N[C@H](CCCNC(=N)N)C(=O)N[C@H](CCCNC(=N)N)C(=O)N[C@H](CCCNC(=N)N)C(N)=O)C(=O)NCC(C)=O

IC50 [26]: 6100 nM | T1/2 [3]: 0.1 min | Kd [27]: 4.2 nM | K [28]: 3.3 10^7/M/s
SMILES: CC[C@H](C)[C@H](NC(=O)CCC(=O)N[C@@H](CCCCNC(=O)[C@@H](CCCNC(=N)N)NC(=O)CCCCCCCC(=O)N1CCN(c2ncnc3[nH]ccc23)CC1)C(N)=O)C(=O)NCC(C)=O

IC50 [26]: 24 nM | T1/2 [3]: 4.5 min | Activity [29]: 102% | Activity [30]: 9% | Kd [27]: 0.019 nM | Ratio [31]: 200 | Activity [32]: 8% | K [28]: 1.4 10^8/M/s | Activity [33]: 2% | Activity [34]: 93% | Activity [35]: 8% | Activity [36]: 21%
SMILES: CC[C@H](C)[C@H](NC(=O)CCC(=O)N[C@@H](CCCCNC(=O)[C@@H](CCCNC(=N)N)NC(=O)CCCCCCCC(=O)N1CCN(c2ncnc3[nH]ccc23)CC1)C(=O)N[C@H](CCCNC(=N)N)C(=O)N[C@H](CCCNC(=N)N)C(N)=O)C(=O)NCC(C)=O

T1/2 [3]: > 150 min | Activity [4]: Tde | T1/2 [7]: 346 min | Kinact [9]: 3.3 10^-5/s | Ki [10]: 4.2 nM
SMILES: CC[C@H](C)[C@H](NC(=O)CCC(=O)N[C@@H](CCCCNC(=O)[C@@H](CCCNC(=N)N)NC(=O)CCCCCCCC(=O)N1CCN(c2ncnc3[nH]ccc23)CC1)C(N)=O)C(=O)NCC(=O)CF
